Measured values from publication PMC10591299, “Targeting SHP2 with an Active Site Inhibitor Blocks Signaling and Breast Cancer Cell Phenotypes” (ACS Bio & Med Chem Au, 2023).
pIC50: −log10 of the molar value.

Assays:
[1] = molecular target: T1, SHP2 (Homo sapiens, UniProt Q06124); assay: PTPase assay, GST-fusion PTP domain of SHP2, DiFMUP substrate; type: biochemical
T1 construct: the GST fusion of the PTP domains of SHP2, SHP1, and PTP1B were produced and purified as reported by us previously; GST; made in house
T1 sequence (Q06124 247-517 limits assumed): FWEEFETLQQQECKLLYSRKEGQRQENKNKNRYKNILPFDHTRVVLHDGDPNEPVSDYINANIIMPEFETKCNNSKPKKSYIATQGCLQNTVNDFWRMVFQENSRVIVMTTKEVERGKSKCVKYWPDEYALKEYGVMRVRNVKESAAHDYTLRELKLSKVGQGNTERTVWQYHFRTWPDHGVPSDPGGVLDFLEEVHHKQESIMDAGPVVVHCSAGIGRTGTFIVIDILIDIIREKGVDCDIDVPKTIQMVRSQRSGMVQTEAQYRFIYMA
Protocol: After completion of synthesis, both CNBCA and CNBBA were purified on silica gel, and purity was determined by HPLC. The purified compounds were then tested for their effect on the SHP2 enzyme activity and on the activity of the selected control PTPs (SHP1 and PTP1B) by the phosphotyrosyl phosphatase (PTPase) assay as described previously.[30],[31] First, the GST fusion of the PTP domains of SHP2, SHP1, and PTP1B were produced and purified as reported by us previously.[32] The reactions were performed in a buffer containing 10 mM Tris-HCl (pH 7.2), 100 mM NaCl, 1 mM EDTA, 1 mM dithiothreitol (DTT), and 0.01% Tween-20. Briefly, CNBCA or CNBBA was added first in a serial dilution ranging from 100 μM to 97 nM followed by the enzymes (SHP2, SHP1, or PTP1B) to a final concentration of 1 nM. After 5 min of incubation at room temperature, the reactions were started by adding the artificial substrate DiFMUP (6,8-difluoro-4-methylumbelliferyl phosphate) to a final concentration of 20 μM for SHP2, 35 μM for SHP1, and 10 μM for PTP1B in a reaction volume of 100 μL; variations in DiFMUP concentrations reflect the reported Km values for the respective PTPs.[33] The complete mixture was incubated at 37 °C for 20 min, and fluorescence intensity was measured by the Synergy 4 plate reader at the excitation and emission wavelengths of 360 and 460 nm, respectively. The half inhibitory concentration (IC50) value of each compound was calculated and plotted using Graphpad Prism software.
We used the PTPase assay described previously[30],[31] to evaluate the effect of the newly synthesized compounds on the enzymatic activity of SHP2, SHP1, and PTP1B. The PTP domains of the indicated proteins were prepared as reported by us recently.[32] The artificial PTP substrate DiFMUP (6,8-Difluoro-4-Methylumbelliferyl Phosphate) was purchased from Invitrogen. The purified proteins were dialyzed into a phosphatase buffer containing 10 mM Tris-HCl ([…]), 100 mM NaCl, 1.0 mM EDTA, 1.0 mM dithiothreitol (DTT), and 0.01% Tween-20. Briefly, the PTPase reactions were performed in 100 μL volume containing 1 nM enzyme, inhibitors in serial dilutions (12 nM to 100 μM), and DiFMUP to a final concentration of 20 μM for SHP2, 35 μM for SHP1, and 10 μM for PTP1B. Differences in DiFMUP concentrations reflect the reported Km values for each PTP.[37] The mixtures were incubated at 37 °C for 20 min and transferred to 96 well plates, and the fluorescence intensity was measured by a Synergy 4 plate reader at the excitation and emission wavelengths of 360 and 460 nm, respectively. Graphpad Prism software was used to calculate the IC50 values.

[2] = molecular target: T1, SHP2; assay: Enzyme kinetic study (Michaelis-Menten, Lineweaver-Burk) with DiFMUP; type: biochemical; conditions: Km increased without change in Vmax
Protocol: As such, its mechanism of inhibition is expected to be through competitive binding to the active site. To verify this point, we conducted enzyme kinetic studies using the artificial substrate DiFMUP in the presence and absence of CNBCA. Briefly, 400 μM DiFMUP in the PTPase buffer was added to the 12th well in the 96-well plate and then serially diluted to as low as 3.12 μM in the successive wells. After adding the enzyme to a final concentration of 1.0 nM in a total volume of 100 μL, the fluorescence of the enzyme reaction rate was measured for a total of 3 min at 10 s interval in the Synergy 4 plate reader at the excitation and emission wavelengths of 360 and 460 nm, respectively. The data was transformed into relative fluorescence unit (RFU) per second and plotted using the Graphpad software to produce the Michaelis–Menten and the Lineweaver–Burk plots.
In these reactions, the enzyme was added last, and the fluorescence was read for 3 min at 10 s interval. Changes in fluorescence intensity were used to calculate the Km of the SHP2 enzyme for DiFMUP in the presence and absence of CNBCA. The Graphpad Prism was used to prepare the Michaelis–Menten and Lineweaver–Burk plots and to determine the Km values.

[3] = test system: BT474 cells; assay: Colony formation in soft agar, BT474; type: cell-based; conditions: BT474, 500 nM, 10 days, versus vehicle
Protocol: Since SHP2 is essential for the growth and transformation of BC cells,[8],[9],[11] we determined the effect of SHP2 inhibition with CNBCA in 2D and 3D culture systems. For the effect on cell growth, BC cells (BT474 and MDA-MB468) were seeded in 2D culture and treated with a single concentration of CNBCA (500 nM), the concentration that provided a 50% inhibition of SHP2 mediated signaling in BT474 cells. Images were collected at the start and every 24 h for a total of 72 h (3 days). […] For effect on anchorage independent growth, approximately 10^6 cells were seeded in soft agar as described previously,[24] and treated with CNBCA at 500 nM concentration for 10 days with refeeding and adjustment of compound concentration. […] Finally, the effect of CNBCA on cancer stem cell properties was determined by the suspension assay, in which only cells with stem-like properties only can grow and form mammospheres.[7],[24],[36] Approximately 10^6 cells were seeded in nonadherent 6 cm plates and treated with CNBCA (500 nM) for 10 days with complementation of media and drug concentration.
For colony formation studies, we used the soft agar assay, which keeps cells anchorage independently, allowing determination on the transformation phenotype of cancer cells, including breast cancer cells.[11],[35] For this assay, we first prepared a 5% stock suspension in PBS by boiling it in a microwave. […]

In the case of `CCCCCCCCCOc1ccc(-c2ccc(C(=O)O)cc2)cc1CCCC(=O)O` [CNBCA, 3′-(3-carboxypropyl)-4′-(nonyloxy)-[1,1′-biphenyl]-4-carboxylic acid], the pIC50 ([1]; PTP domain, 1 nM enzyme, 20 μM DiFMUP, 37 °C 20 min) was 6.06, the “selectivity ratio SHP2 (reference)” value ([1]; SHP2 IC50 as reference) was 1.0 and the fold difference ([1]; SHP2 IC50 relative to CNBCA) was 1.0 fold. The mechanism of inhibition [2] was “competitive inhibitor” and the “colony formation in soft agar” value [3] was “fewer and smaller colonies”.
